This passage reports IC50 results from patent US8946230B2, “Aryl- and heteroaryl- nitrogen-heterocyclic compounds as PDE10 inhibitors” (Amgen Inc., priority 2010, dated 2015).

One experiment has as its target T1, PDE10 (UniProt Q8CA95).
T1 sequence (Q8CA95 1-790): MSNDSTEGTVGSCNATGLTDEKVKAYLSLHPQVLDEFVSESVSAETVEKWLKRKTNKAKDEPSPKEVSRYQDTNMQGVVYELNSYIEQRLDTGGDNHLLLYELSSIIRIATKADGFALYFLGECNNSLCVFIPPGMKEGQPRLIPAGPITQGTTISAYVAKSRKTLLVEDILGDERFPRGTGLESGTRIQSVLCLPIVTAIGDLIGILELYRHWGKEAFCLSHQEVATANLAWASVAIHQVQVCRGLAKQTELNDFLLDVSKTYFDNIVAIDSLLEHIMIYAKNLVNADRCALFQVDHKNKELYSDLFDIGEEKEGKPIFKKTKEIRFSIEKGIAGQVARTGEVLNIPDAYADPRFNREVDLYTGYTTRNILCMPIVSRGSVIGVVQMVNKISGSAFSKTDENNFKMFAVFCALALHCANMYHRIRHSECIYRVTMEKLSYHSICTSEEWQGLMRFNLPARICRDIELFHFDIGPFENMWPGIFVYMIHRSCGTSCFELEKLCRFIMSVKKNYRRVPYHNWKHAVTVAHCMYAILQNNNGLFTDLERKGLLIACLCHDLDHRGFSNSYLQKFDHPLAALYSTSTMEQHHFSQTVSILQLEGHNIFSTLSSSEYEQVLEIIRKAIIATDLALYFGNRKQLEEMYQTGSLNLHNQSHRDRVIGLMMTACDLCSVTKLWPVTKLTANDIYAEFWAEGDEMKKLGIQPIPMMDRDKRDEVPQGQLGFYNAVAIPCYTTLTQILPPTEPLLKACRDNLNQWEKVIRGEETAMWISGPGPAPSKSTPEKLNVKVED
Put plainly: PDE10 enzyme inhibition, IMAP TR-FRET assay (Example A: MPDE10A7 Enzyme Activity and Inhibition). In kind it is biochemical. The following applies: Table 1A, Examples 11-56; read-out: PDE10 IC50. As to the method: MPDE10A7 Enzyme Activity and Inhibition Enzyme Activity. An IMAP TR-FRET assay was used to analyze the enzyme activity (Molecular Devices Corp., Sunnyvale Calif.). 5 μL of serial diluted PDE10A (BPS Bioscience, San Diego, Calif.) or tissue homogenate was incubated with equal volumes of diluted fluorescein labeled cAMP or cGMP for 60 min in 384-well polystyrene assay plates (Corning, Corning, N.Y.) at room temperature. After incubation, the reaction was stopped by adding 60 μL of diluted binding reagents and was incubated for 3 hours to overnight at room temperature. The plates were read on an Envision (Perkin Elmer, Waltham, Mass.) for time resolved fluorescence resonance energy transfer. The data were analyzed with GraphPad Prism (La Jolla, Calif.). Enzyme Inhibition. To check the inhibition profile, 5 μL of serial diluted compounds were incubated with 5 μL of diluted PDE10 enzyme (BPS Bioscience, San Diego, Calif.) or tissue homogenate in a 384-well polystyrene assay plate (Corning, Corning, N.Y.) for 30 min at room temperature. After incubation, 10 μL of diluted fluorescein labeled cAMP or cGMP substrate were added and incubated for 60 min at room temperature. The reaction was stopped by adding 60 μL of diluted binding reagents and plates were read on an Envision (Perkin Elmer, Waltham, Mass.) for time resolved fluorescence resonance energy transfer. The data were analyzed with GraphPad Prism (La Jolla, Calif.).
On to `N#Cc1ccc2[nH]c(C3CCN(c4nccnc4-c4ccccc4)C3)nc2c1` (centres unmarked) [Example 15, 2-[1-(3-phenyl-pyrazin-2-yl)-pyrrolidin-3-yl]-1H-benzoimidazole-5-carbonitrile], for which the IC50 is 461 nM. Take `O=C(NC[C@@H]1CCCO1)c1nccnc1N1CC(c2nc3cc(Cl)ccc3[nH]2)C1` [Example 38, 3-[3-(5-chloro-1H-benzoimidazol-2-yl)-azetidin-1-yl]-pyrazine-2-carboxylic acid (tetrahydro-furan-2-ylmethyl)-amide]: the IC50 came to 2150 nM. For `O=C(Nc1ccccc1)c1cccnc1N1CC(c2nc3cc(Cl)ccc3[nH]2)C1` [Example 18, 2-[3-(5-chloro-1H-benzoimidazol-2-yl)-azetidin-1-yl]-N-phenyl-nicotinamide], the IC50 was 2600 nM. Still for that read-out and setting: the result for `Clc1ccc2[nH]c(C3CN(c4nccnc4C4=CCOCC4)C3)nc2c1` [Example 51, 5-chloro-2-(1-(3-(3,6-dihydro-2H-pyran-4-yl)pyrazin-2-yl)azetidin-3-yl)-1H-benzo[d]imidazole] reads 442 nM. Turning to `Cc1ccc2[nH]c(C3CN(c4ncccc4Cl)C3)nc2c1` [Example 47, 2-(1-(3-chloropyridin-2-yl)azetidin-3-yl)-5-methyl-1H-benzo[d]imidazole], the IC50 turned out to be 3840 nM. On the same count and under the same terms, the result for `Clc1ccc2[nH]c(C3CN(c4nc(Cl)ncc4Cl)C3)nc2c1` [Example 55, 5-chloro-2-(1-(2,5-dichloropyrimidin-4-yl)azetidin-3-yl)-1H-benzo[d]imidazole] reads 520 nM; that for `Clc1ccc2[nH]c(C3CN(c4ncccc4C4CCOCC4)C3)nc2c1` [Example 56, 5-chloro-2-(1-(3-(tetrahydro-2H-pyran-4-yl)pyridin-2-yl)azetidin-3-yl)-1H-benzo[d]imidazole], 987 nM. On the same count and under the same terms, the result for `CC(C)NC(=O)c1cccnc1N1CC(c2nc3cc(Cl)ccc3[nH]2)C1` [Example 21, 2-[3-(5-chloro-1H-benzoimidazol-2-yl)-azetidin-1-yl]-N-isopropyl-nicotinamide] reads 4780 nM; that for `Cc1ccc2[nH]c(C3CN(c4nccnc4-c4ccccc4)C3)nc2c1` [Example 39, 5-methyl-2-(1-(3-phenylpyrazin-2-yl)azetidin-3-yl)-1H-benzo[d]imidazole], 39.8 nM.

Take `Clc1ccc2[nH]c(C3CN(c4nccnc4-c4ccccc4Cl)C3)nc2c1` [Example 30, 5-chloro-2-{1-[3-(2-chloro-phenyl)-pyrazin-2-yl]-azetidin-3-yl}-1H-benzoimidazole]: the IC50 amounted to 58.6 nM. As for `O=C(NC1CCOCC1)c1nccnc1N1CC(c2nc3cc(Cl)ccc3[nH]2)C1` [Example 36, 3-[3-(5-chloro-1H-benzoimidazol-2-yl)-azetidin-1-yl]-pyrazine-2-carboxylic acid (tetrahydro-pyran-4-yl)-amide], the IC50 was found to be 3280 nM. Still for that read-out and setting: as for `O=C(NCc1ccccc1)c1cccnc1N1CC(c2nc3cc(Cl)ccc3[nH]2)C1` [Example 19, N-Benzyl-2-[3-(5-chloro-1H-benzoimidazol-2-yl)-azetidin-1-yl]-nicotinamide], the figure is 4650 nM. Regarding `c1ccc(-c2nccnc2N2CCC(c3nc4cc(C5CC5)ccc4[nH]3)CC2)cc1` [Example 13, 5-Cyclopropyl-2-[1-(3-phenyl-pyrazin-2-yl)-piperidin-4-yl]-1H-benzoimidazole], the 50% inhibitory concentration (IC50) amounted to 277 nM. Still for that read-out and setting: as for `Cc1cccc(-c2nccnc2N2CC(c3nc4cc(Cl)ccc4[nH]3)C2)c1` [Example 25, 5-chloro-2-[1-(3-m-tolyl-pyrazin-2-yl)-azetidin-3-yl]-1H-benzoimidazole], the figure is 15 nM; as for `CN(c1ccccc1)c1nccnc1N1CC(c2nc3cc(Cl)ccc3[nH]2)C1` [Example 41, 3-(3-(5-chloro-1H-benzo[d]imidazol-2-yl)azetidin-1-yl)-N-methyl-N-phenylpyrazin-2-amine], 74 nM. For `Clc1cccc(-c2nccnc2N2CC(c3nc4cc(Cl)ccc4[nH]3)C2)c1` [Example 31, 5-chloro-2-{1-[3-(3-chloro-phenyl)-pyrazin-2-yl]-azetidin-3-yl}-1H-benzoimidazole], the IC50 was 119 nM. The same measure, in the same setting: the result for `Clc1ccc2[nH]c(C3CN(c4nccnc4-c4cccnc4)C3)nc2c1` [Example 33, 5-chloro-2-[1-(3-pyridin-3-yl-pyrazin-2-yl)-azetidin-3-yl]-1H-benzoimidazole] reads 538 nM; that for `N#Cc1ccc2[nH]c(C3CCN(c4nccnc4N4CCOCC4)C3)nc2c1` (centres unmarked) [Example 12, 2-[1-(3-Morpholin-4-yl-pyrazin-2-yl)-pyrrolidin-3-yl]-1H-benzoimidazole-5-carbonitrile], 535 nM; that for `COc1cccc(-c2nccnc2N2CC(c3nc4cc(Cl)ccc4[nH]3)C2)c1` [Example 28, 5-chloro-2-{1-[3-(3-methoxy-phenyl)-pyrazin-2-yl]-azetidin-3-yl}-1H-benzoimidazole], 26 nM. Still for that read-out and setting: the result for `Clc1ccc2[nH]c(C3CN(c4nccnc4N4CCOCC4)C3)nc2c1` [Example 50, 4-(3-(3-(5-chloro-1H-benzo[d]imidazol-2-yl)azetidin-1-yl)pyrazin-2-yl)morpholine] reads 134 nM.

The experiment is the same for the next values; noted with them: Table 2A, Examples 61-64; read-out: IC50.
As to `OCC1CCN(c2nccnc2N2CC(c3ccc4ccccc4n3)C2)CC1` [Example 62, {1-[3-(3-Quinolin-2-yl-azetidin-1-yl)-pyrazin-2-yl]-piperidin-4-yl}-methanol], the IC50 was determined as 358 nM.

The same experiment, now with this note: read-out: IC50.
Turning to `N#Cc1ccc2[nH]c(C3CCN(c4nccnc4N4CCOCC4)CC3)nc2c1` [Example 1B, 2-[1-(3-MORPHOLIN-4-YL-PYRAZIN-2-YL)-PIPERIDIN-4-YL]-1H-BENZOIMIDAZOLE-5-CARBONITRILE], the IC50 stood at 2000 nM. On the same count and under the same terms, the result for `Clc1ccc2[nH]c(C3CN(c4nc(N5CCOCC5)ncc4Cl)C3)nc2c1` [Example 7, 4-(5-CHLORO-4-(3-(5-CHLORO-1H-BENZO[D]IMIDAZOL-2-YL)AZETIDIN-1-YL)PYRIMIDIN-2-YL)MORPHOLINE] reads 155 nM; that for `COc1cccc(-c2cccnc2N2CC(c3ccc4ccccc4n3)C2)c1` [Example 60, 2-{1-[3-(3-METHOXY-PHENYL)-PYRIDIN-2-YL]-AZETIDIN-3-YL}-QUINOLINE], 6820 nM; that for `Cc1ccc2[nH]c(C3CN(c4c(Cl)cncc4-c4ccccc4)C3)nc2c1` [Example 2B, 2-[1-(3-CHLORO-5-PHENYL-PYRIDIN-4-YL)-AZETIDIN-3-YL]-5-METHYL-1H-BENZOIMIDAZOLE], 22 nM.

Turning to `N#Cc1ccc2[nH]c(C3CCN(c4nccnc4-c4ccccc4)CC3)nc2c1` [Example 1A, 2-[1-(3-PHENYL-PYRAZIN-2-YL)-PIPERIDIN-4-YL]-1H-BENZOIMIDAZOLE-5-CARBONITRILE], the IC50 is 272 nM. For the compound `O=C(c1cccnc1N1CC(c2nc3cc(Cl)ccc3[nH]2)C1)N1CC(O)C1` [Example 3, {2-[3-(5-CHLORO-1H-BENZOIMIDAZOL-2-YL)-AZETIDIN-1-YL]-PYRIDIN-3-YL}-(3-HYDROXY-AZETIDIN-1-YL)-METHANONE], the IC50 is 549 nM.

`Clc1ccc2[nH]c(C3CN(c4ccnc(N5CCOCC5)n4)C3)nc2c1` [Example 1D, 4-(4-(3-(5-CHLORO-1H-BENZO[D]IMIDAZOL-2-YL)AZETIDIN-1-YL)PYRIMIDIN-2-YL)MORPHOLINE]: the IC50 was determined as 645 nM. For the compound `CNC(=O)c1nccnc1N1CC(c2nc3cc(Cl)ccc3[nH]2)C1` [Example 4, 3-[3-(5-CHLORO-1H-BENZOIMIDAZOL-2-YL)-AZETIDIN-1-YL]-PYRAZINE-2-CARBOXYLIC ACID METHYLAMIDE], the IC50 is 3880 nM.
